Values quoted from earlier work as cited in patent US20220031715A1, “COMPOSITIONS AND METHODS FOR ENHANCING WOUND HEALING” (priority 2018, published 2022).

What was measured:
[1] = system: NR1I2/PAR, NR1i2/PXR, ESR1, NFE2L2/HEBP1, NR1 L3/CAR, and TSHR; conditions: at least six receptors

Which “activation of hormone receptors” value [1] does the source give for `O=P(Oc1ccccc1)(Oc1ccccc1)Oc1ccccc1` [TPP, triphenyl phosphate] here?
The value was “activates”.

What about the toxicity (mammals) of the same compound?
The toxicity was “very low toxicity”.
